target: Wild Type HPK1 (MAP4K1) Kinase (Homo sapiens (Human), UniProt Q92918); assay: HPK1 Assay (Caliper EZ reader, fluorescein tagged peptide substrate); format: biochemical; settings: ATP 500 micromolar, kinase 6 nM, pH 7.4
Protocol: The enzymatic activity of Wild Type HPK1 (MAP4K1) Kinase was measured in the presence or absence of an inhibitor compound of the present disclosure by preparation of a reaction mixture containing a fluorescein tagged peptide (2 micromolar final concentration), ATP (Adenosine Triphosphate, 500 micromolar final concentration) and Wild Type kinase (6 nM final concentration) in a buffer system comprising 50 mM HEPES (Buffer), 3 mM MgCl2, 5% w/v Trehalose, 0.01% Brij 35 (Detergent), 0.1% Pluronic F127 (Surfactant), 0.1 mM EDTA (Ethylenediaminetetraacetic acid), 0.1 mM EGTA (ethylene glycol-bis(β-aminoethyl ether)-N,N,N′,N′-tetraacetic acid) and 1 mM DTT (Dithiothreitol) and at a pH of 7.4. The reactions were quenched by the addition of EDTA to a final concentration of 25 mM. A Caliper EZ reader was used to measure the extent of substrate to product conversion.
The peptide substrate used in the HPK1 assay was designed based on the amino acid sequence surrounding serine residue 376 of SLP76-Lymphocyte cytosolic protein 2 (a known intracellular substrate of HPK1). This sequence SSFPQSAsLPPYFSQ was modified as follows for use in Caliper assays of HPK1: the serine residues on either side of serine 376 were replaced with alanine, three lysine residues were added at the […] and a fluorescein tag (FAM) was attached to the […] to produce the sequence, FAM-FPQAAsLPPYFAKKK.

Wild Type HPK1 (MAP4K1) Kinase, sequence (Q92918 whole entry, species assumed): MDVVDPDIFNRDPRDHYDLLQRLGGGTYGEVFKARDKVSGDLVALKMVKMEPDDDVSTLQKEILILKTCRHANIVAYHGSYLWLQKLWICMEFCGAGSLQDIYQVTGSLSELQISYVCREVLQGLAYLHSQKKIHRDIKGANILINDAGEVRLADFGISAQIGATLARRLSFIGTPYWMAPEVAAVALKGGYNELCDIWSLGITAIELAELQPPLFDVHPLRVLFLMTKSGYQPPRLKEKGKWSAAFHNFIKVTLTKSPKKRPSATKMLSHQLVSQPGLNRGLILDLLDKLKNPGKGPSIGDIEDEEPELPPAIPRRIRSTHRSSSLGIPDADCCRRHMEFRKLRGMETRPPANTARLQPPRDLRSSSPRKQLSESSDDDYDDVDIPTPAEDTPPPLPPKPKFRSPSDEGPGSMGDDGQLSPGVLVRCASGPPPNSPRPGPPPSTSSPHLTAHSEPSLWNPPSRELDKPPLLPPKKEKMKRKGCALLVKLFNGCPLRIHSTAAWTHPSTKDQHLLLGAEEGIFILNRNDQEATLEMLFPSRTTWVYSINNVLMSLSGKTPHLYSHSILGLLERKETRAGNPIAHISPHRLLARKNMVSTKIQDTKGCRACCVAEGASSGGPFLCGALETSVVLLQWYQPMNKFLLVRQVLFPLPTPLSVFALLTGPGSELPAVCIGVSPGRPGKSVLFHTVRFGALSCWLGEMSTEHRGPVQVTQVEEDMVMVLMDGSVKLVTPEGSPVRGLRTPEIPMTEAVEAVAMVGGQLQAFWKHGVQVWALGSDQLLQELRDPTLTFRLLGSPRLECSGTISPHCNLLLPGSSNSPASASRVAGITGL

Row | SMILES | IC50 [nM]
1 | CCP(=O)(CC)c1ccccc1Nc1nc(Nc2cc3c(cc2OC)CCN(C)C3)ncc1Cl [Example I-19, (2-((5-chloro-2-((6-methoxy-2-methyl-1,2,3,4-tetrahydroisoquinolin-7-yl)amino)pyrimidin-4-yl)amino)phenyl)diethylphosphine oxide] | < 5
2 | CN1CCc2cc(F)c(Nc3ncc(Cl)c(Nc4ccccc4P(C)(C)=O)n3)cc2C1 [Example I-5, (2-((5-chloro-2-((6-fluoro-2-methyl-1,2,3,4-tetrahydroisoquinolin-7-yl)amino)pyrimidin-4-yl)amino)phenyl)dimethylphosphine oxide] | < 5
3 | COc1cc2c(cc1Nc1ncc(OC)c(Nc3ccccc3P(C)(C)=O)n1)CN(C)CC2 [Example I-23, (2-((5-methoxy-2-((6-methoxy-2-methyl-1,2,3,4-tetrahydroisoquinolin-7-yl)amino)pyrimidin-4-yl)amino)phenyl)dimethylphosphine oxide] | 5 to 10
4 | CP(C)(=O)c1ccccc1Nc1nc(Nc2cc3c(cc2C(F)(F)F)CCNC3)ncc1Cl [Example I-37, (2-((5-Chloro-2-((6-(trifluoromethyl)-1,2,3,4-tetrahydroisoquinolin-7-yl)amino)pyrimidin-4-yl)amino)phenyl)dimethylphosphine oxide] | 10 to 100
5 | COc1cc2c(cc1Nc1ncc(Cl)c(Nc3ccccc3P(C)(C)=O)n1)CN1CCCCC1C2 (stereo not shown) [Example I-10, 5-chloro-N^4-(2-dimethylphosphorylphenyl)N^2-(9-methoxy-2,3,4,6,11,11a-hexahydro-1H-benzo[b]quinolizin-8-yl)pyrimidine-2,4-diamine] | < 5
6 | COc1cc2c(cc1Nc1ncc(Cl)c(Nc3ccccc3S(=O)(=O)N(C)C)n1)CN(C)CC2 [II-2, 2-((5-chloro-2-((6-methoxy-2-methyl-1,2,3,4-tetrahydroisoquinolin-7-yl)amino)pyrimidin-4-yl)amino) N,N-dimethylbenzenesulfonamide] | < 5
7 | CN1CCc2cc(C(F)(F)F)c(Nc3ncc(Cl)c(Nc4ccccc4P(C)(C)=O)n3)cc2C1 [Example I-45, (2-((5-chloro-2-((2-methyl-6-(trifluoromethyl)-1,2,3,4-tetrahydroiso-quinolin-7-yl)amino)-pyrimidin-4-yl)-amino)phenyl)dimethylphosphine oxide] | 100 to 10000
8 | CCP(=O)(CC)c1ccccc1Nc1nc(Nc2cc3c(cc2Cl)CCN(C)C3)ncc1Cl [Example I-20, (2-((5-chloro-2-((6-chloro-2-methyl-1,2,3,4-tetrahydroisoquinolin-7-yl)amino)pyrimidin-4-yl)amino)phenyl)diethylphosphine oxide] | < 5
9 | COc1cc2c(cc1Nc1nccc(Nc3ccccc3P(C)(C)=O)n1)CN(C)CC2 [Example I-25, (2-((2-((6-methoxy-2-methyl-1,2,3,4-tetrahydroisoquinolin-7-yl)amino)pyrimidin-4-yl)amino)phenyl)dimethylphosphine oxide] | 100 to 10000
10 | C=Cc1cc2c(cc1Nc1ncc(Cl)c(Nc3ccccc3P(C)(C)=O)n1)CN(C)CC2 [Example I-8, 5-chloro-N^4-(2-dimethylphosphorylphenyl)-N^2-(2-methyl-6-vinyl-3,4-dihydro-1H-isoquinolin-7-yl)pyrimidine-2,4-diamine] | 5 to 10
11 | COc1cc2c(cc1Nc1ncc(Cl)c(Nc3ccccc3S(=O)(=O)C(C)C)n1)CN(C)CC2 [II-1, 5-chloro-N^4-(2-(isopropylsulfonyl)phenyl)-N^2-(6-methoxy-2-methyl-1,2,3,4-tetrahydroisoquinolin-7-yl)pyrimidine-2,4-diamine] | < 5
12 | CCc1cnc(Nc2cc3c(cc2OC)CCN(C)C3)nc1Nc1ccccc1P(C)(C)=O [Example I-48, (2-((5-Ethyl-2-((6-methoxy-2-methyl-1,2,3,4-tetrahydroisoquinolin-7-yl)amino)pyrimidin-4-yl)amino)phenyl)dimethylphosphine oxide] | 5 to 10
13 | COc1c(Nc2ncc(Cl)c(Nc3ccccc3P(C)(C)=O)n2)cc2c(c1N)CC1CCCCN1C2 (stereo not shown) [Example I-9, N^8-[5-chloro-4-(2-dimethylphosphorylanilino)pyrimidin-2-yl]-9-methoxy-2,3,4,6,11,11a-hexahydro-1H-benzo[b]quinolizine-8,10-diamine] | 10 to 100
14 | CCc1cc2c(cc1Nc1ncc(Cl)c(Nc3ccccc3P(C)(C)=O)n1)CN(C)CC2 [Example I-7, 5-chloro-N^4-(2-dimethylphosphorylphenyl)-N^2-(6-ethyl-2-methyl-3,4-dihydro-1H-isoquinolin-7-yl)pyrimidine-2,4-diamine] | 5 to 10
15 | CCOc1cc2c(cc1Nc1ncc(Cl)c(Nc3ccccc3P(C)(C)=O)n1)CN(C)CC2 [Example I-36, (2-((5-chloro-2-((6-ethoxy-2-methyl-1,2,3,4-tetrahydroisoquinolin-7-yl)amino)pyrimidin-4-yl)amino)phenyl)dimethylphosphine oxide] | 10 to 100

More lines, now with the values ahead:

Row | IC50 [nM] | SMILES
16 | < 5 | [2H]C1([2H])c2cc(Nc3ncc(Cl)c(Nc4ccccc4P(C)(C)=O)n3)c(OC)cc2CCN1C(C)C [Example I-43, (2-((5-chloro-2-((2-isopropyl-6-methoxy-1,2,3,4-tetrahydroiso-quinolin-7-yl-1,1-d2)amino)pyrimidin-4-yl)amino)phenyl)-dimethylphosphine oxide]
17 | 5 to 10 | COc1cc2c(cc1Nc1ncc(Cl)c(Nc3ccccc3P(C)(C)=O)n1)[C@H](N(C)C)CC2 [Example I-14, (R)-(2-((5-chloro-2-((3-(dimethylamino)-6-methoxy-2,3-dihydro-1H-inden-5-yl)amino)pyrimidin-4-yl)amino)phenyl)dimethylphosphine oxide]
18 | 5 to 10 | COc1cc2c(cc1Nc1ncc(Cl)c(Nc3ccccc3P(C)(C)=O)n1)CN(C)CC2(C)C [Example I-44, (2-((5-chloro-2-((6-methoxy-2,4,4-trimethyl-1,2,3,4-tetrahydroisoquinolin-7-yl)amino)pyrimidin-4-yl)amino)phenyl)-dimethylphosphine oxide]
19 | < 5 | COc1cc2c(cc1Nc1ncc(Cl)c(Nc3ccccc3P(C)(C)=O)n1)C(C)N(C)CC2 (stereo not shown) [Example I-29, (2-((5-chloro-2-((6-methoxy-1,2-dimethyl-1,2,3,4-tetrahydroisoquinolin-7-yl)amino)pyrimidin-4-yl)amino)phenyl)dimethylphosphine oxide]
20 | 100 to 10000 | COc1cc2c(cc1Nc1ncc(Cl)c(Nc3ccccc3P(C)(C)=O)n1)C(=O)N(C)CCC2 [Example I-34, 8-((5-chloro-4-((2-(dimethylphosphoryl)phenyl)amino)pyrimidin-2-yl)amino)-7-methoxy-2-methyl-2,3,4,5-tetrahydro-1H-benzo[c]azepin-1-one]
21 | 10 to 100 | COc1cc2c(cc1Nc1ncc(Cl)c(Nc3ccccc3P(C)(C)=O)n1)CCCN(C)C2 [Example I-4, (2-((5-chloro-2-((8-methoxy-2-methyl-2,3,4,5-tetrahydro-1H-benzo[c]azepin-7-yl)amino)pyrimidin-4-yl)amino)phenyl)dimethylphosphine oxide]
22 | 10 to 100 | COc1cc2c(cc1Nc1ncc(Cl)c(Nc3ccccc3P(C)(C)=O)n1)CC(N(C)C)C2 (stereo not shown) [Example I-17, (2-((5-chloro-2-((2-(dimethylamino)-6-methoxy-2,3-dihydro-1H-inden-5-yl)amino)pyrimidin-4-yl)amino)phenyl)dimethylphosphine oxide]
23 | 100 to 10000 | COc1cc2c(cc1Nc1ncc(Cl)c(Nc3ccccc3P(C)(C)=O)n1)[C@@H](N(C)C)CC2 [Example I-16, (S)-(2-((5-chloro-2-((3-(dimethylamino)-6-methoxy-2,3-dihydro-1H-inden-5-yl)amino)pyrimidin-4-yl)amino)phenyl)dimethylphosphine oxide]
24 | < 5 | COc1cc2c(cc1Nc1ncc(Cl)c(Nc3ccccc3P(C)(C)=O)n1)CCNC2 [Example I-38, (2-((5-chloro-2-((7-methoxy-1,2,3,4-tetrahydroisoquinolin-6-yl)amino)pyrimidin-4-yl)amino)phenyl)dimethylphosphine oxide]
25 | < 5 | COc1cc2c(cc1Nc1ncc(Cl)c(Nc3ccccc3P(C)(C)=O)n1)CNCC2 [Example I-41, (2-((5-chloro-2-((6-methoxy-1,2,3,4-tetrahydroisoquinolin-7-yl)amino)pyrimidin-4-yl)amino)phenyl)dimethylphosphine oxide]
26 | < 5 | COc1cc2c(cc1Nc1ncc(Cl)c(Nc3ccccc3P(C)(C)=O)n1)CCN(C)C2 [Example I-18, (2-((5-chloro-2-((7-methoxy-2-methyl-1,2,3,4-tetrahydroisoquinolin-6-yl)amino)pyrimidin-4-yl)amino)phenyl)dimethylphosphine oxide]
27 | < 5 | [2H]C1([2H])NCCc2cc(OC)c(Nc3ncc(Cl)c(Nc4ccccc4P(C)(C)=O)n3)cc21 [Example I-39, (2-((5-chloro-2-((6-methoxy-1,2,3,4-tetrahydroisoquinolin-7-yl-1,1-d2)amino)pyrimidin-4-yl)amino)phenyl)dimethyl-phosphine oxide]
28 | < 5 | COc1cc2c(cc1Nc1ncc(Cl)c(Nc3ccccc3P(C)(C)=O)n1)CNCC2(C)C [Example I-40, (2-((5-chloro-2-((6-methoxy-4,4-dimethyl-1,2,3,4-tetrahydroisoquinolin-7-yl)amino)pyrimidin-4-yl)amino)phenyl)dimethylphosphine oxide]
